By ED50 is commonly meant the dose at which the effect has come halfway, by size or by number of responders. Low readings indicate greater potency, high ones weaker potency.

For the assay, the system named is Mus musculus. In words: Compound was evaluated in vivo for Pharmacology response in the mouse model Spontaneous Activity. The class given is functional.

`CCCCCc1cc(O)c2c(c1)OC(C)(C)[C@@H]1CCC(C)=C[C@@H]21` [DRONABINOL]: the ED50 amounted to 2.9 µmol/kg.
